From US11096926B2, “(3AR)-1,3A,8-trimethyl-1,2,3,3A,8,8A-hexahydropyrrolo[2,3-b]indol-5-yl phenylcarbamate and methods of treating or preventing neurodegeneration” (priority 2011, dated 2021)
Read-outs that look alike come from different tables or passages of the source.

Legend:
APP, Aβ40 and Aβ42 = APP, Aβ40 and Aβ42 levels in mouse brain (Western Blot, ELISA); assay type: in vivo; settings: once daily x 21 day
Method: FIG. 15 is a series of graphs illustrating the in vivo reduction of APP, Aβ40 and Aβ42 levels in mouse brain by Compound (1). Drug was administered once daily×21 day: APP—Western Blot, Aβ—Specific ELISA for 1-40 and 1-42 forms.

APP [1] = assay type: in vivo, mouse; settings: APP23 transgenic AD mice; 25 mg daily for 14 days; mRNA levels not lowered
Method: APP23 transgenic AD mice were treated with 25 mg of Compound (1) daily for 14 days.

NGF = assay: Brain NGF levels in Ts65Dn mice; assay type: in vivo, mouse
Excerpt: (§1) FIG. 17 is a series of graphs illustrating effects of Compound (1) in Ts65Dn mouse model of Down Syndrome.

APP [2] = assay: 35S incorporation into newly synthesized APP in SH-SY-5Y cells; assay type: cell-based; settings: SH-SY-5Y human neuroblastoma cells; 10 min 35S incorporation; APP mRNA and total protein synthesis not altered
Method: FIG. 5A: 10 min ^35S incorporation into APP, in SH-SY-5Y human neuroblastoma cells. FIG. 5B: newly synthesized total protein. FIG. 5C: newly synthesized APP. FIG. 5D: APP mRNA.

[3] = Binding to brain proteins, human brain homogenate; assay type: in vitro ADME
Method: (§2) The binding of Compound (t) and metabolites to brain proteins was determined to be ˜96% (rat and human brain homogenate).

[4] = Binding to brain proteins, rat brain homogenate; assay type: in vitro ADME
Method: as §2

[5] = Human pharmacokinetics in plasma and CSF (proof of mechanism study, MCI patients); assay type: in vivo; settings: for half-life: human, po
Method: (§3) For a proof of mechanism study of Compound (1), patients suffering from mild cognitive impairment (MCI) were treated with Compound (1) for 10 days. The patients were dosed with 4×60 mg Compound (1) for 10 days orally, using Posiphen® powder filled into gelatin capsules. Cerebrospinal fluid (CSF) and plasma were drawn from the subjects over a 12 hour period on day 0 and day 11.
Pharmacokinetic analysis was performed for Compound W) and selected metabolites: N^1-norposiphen, N^8-norposiphen, and N^1,N^8-norposiphen. Pharmacodynamic analysis was performed for APP protein and other AD associated biomarkers in CSF and plasma: APP, Aβ1-40, Aβ1-42, N-APP, AChEI, BChEI, Tau/p-Tau, NGF, BDNF, and inflammatory factors.
(d) in humans, plasma and CSF were analyzed 0 to 12 hours, after administration of the drug.
The levels of Compound (1) and selected metabolites in human plasma (FIG. 22A) and human CSF (FIG. 22B) were determined. […] This was corroborated by measuring half-life of Posiphen® in brains of mice.

alpha-Syn = settings: dopaminergic SH-SY5Y cells; quantitative Western blotting, standardized for β-actin; read-out: efficacy on alpha-Syn expression (IC50); cited from earlier work
Tau = Tau levels before and after 10 days treatment in MCI patients; assay type: in vivo, human; settings: given for 10 days
Method: FIG. 24 is a graph illustrating the comparison of Tau before and after treatment with Compound (1) in healthy volunteers.
as §3

APP [6] = assay type: in vivo, mouse; settings: trisomy Down Syndrome (Ts65Dn) mice; to control non-DS brain levels
AChE = molecular target: T1, AChE (Mus musculus, UniProt P21836); assay: Brain AChE levels in Ts65Dn mice; assay type: in vivo; settings: 50 mg/kg
T1 construct: from tissue; host or cells: brain of Ts65Dn mice
T1 sequence (P21836 32-614): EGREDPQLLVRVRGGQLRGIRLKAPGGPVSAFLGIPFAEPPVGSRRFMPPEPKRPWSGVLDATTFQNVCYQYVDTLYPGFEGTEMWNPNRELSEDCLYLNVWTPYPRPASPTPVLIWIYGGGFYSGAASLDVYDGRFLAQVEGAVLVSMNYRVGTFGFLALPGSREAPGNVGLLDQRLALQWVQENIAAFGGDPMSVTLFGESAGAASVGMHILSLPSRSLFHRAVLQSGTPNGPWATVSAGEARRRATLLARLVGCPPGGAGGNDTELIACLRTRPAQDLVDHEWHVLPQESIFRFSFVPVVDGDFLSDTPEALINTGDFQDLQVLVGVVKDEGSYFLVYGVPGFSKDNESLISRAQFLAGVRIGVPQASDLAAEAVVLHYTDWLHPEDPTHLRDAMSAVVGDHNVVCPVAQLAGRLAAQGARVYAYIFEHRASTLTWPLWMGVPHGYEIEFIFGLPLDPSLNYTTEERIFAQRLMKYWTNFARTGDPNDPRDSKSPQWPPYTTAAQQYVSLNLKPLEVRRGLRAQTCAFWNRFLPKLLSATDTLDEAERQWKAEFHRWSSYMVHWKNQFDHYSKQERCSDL
Excerpt: as §1

[7] = Plasma pharmacokinetics of phenserine in men and women; settings: 15 mg dose on day 35 of study
Excerpt: PT: phenserine; N^8: N^8-desamine phenserine; N^1: N^1-desmethyl phenserine; N^1,N^8: N^1,N^8-desmethyl phenserine.

Structure (SMILES) | APP, Aβ40 and Aβ42 levels in mouse brain (APP, Aβ40 and Aβ42) | APP levels in the brain (APP [1]) | NGF levels in brain (NGF) | newly synthesized APP (APP [2]) | binding to brain proteins [3] [%] | binding to brain proteins [4] [%] | half-life ([5]; CSF, read-out: half-life in human CSF (converted)) [h] | half-life ([5]; plasma, read-out: half-life in human plasma (converted)) [h] | half-life in human plasma ([5]; oral, listed as Posiphen) [h] | IC50 (alpha-Syn) [µM] | Tau levels (Tau) | lowering of APP levels in brain (APP [6]) [%] | lowering of brain AChE levels (AChE) [%] | half life (plasma) [7]
CN1CC[C@]2(C)c3cc(OC(=O)Nc4ccccc4)ccc3N(C)C12 (stereo partly drawn) [Compound (1), (3aR)-1,3a,8-trimethyl-1,2,3,3a,8,8a-hexahydropyrrolo[2,3-b]indol-5-yl phenylcarbamate] | reduction | lowered APP levels | elevated | reduces newly synthesized APP | ~96 | ~96 | ~12 | ~5 | 5 | < 5 | lowers their Tau levels back to the levels found in healthy volunteers | 30 | 50 | 
CN1CC[C@@]2(C)c3cc(OC(=O)Nc4ccccc4)ccc3N(C)[C@@H]12 [phenserine] |  |  |  |  |  |  |  |  |  |  |  |  |  | less than one
